Experimental data from paper PMC6257473, “Artificial Self-Sufficient P450 in Reversed Micelles” (Molecules, 2010).

Biological target: T1, A. pernix ADH (Aeropyrum pernix, UniProt Q9Y9P9)
T1 construct: heat treatment, DEAE Sepharose and Superdex 200
T1 sequence (Q9Y9P9 1-344): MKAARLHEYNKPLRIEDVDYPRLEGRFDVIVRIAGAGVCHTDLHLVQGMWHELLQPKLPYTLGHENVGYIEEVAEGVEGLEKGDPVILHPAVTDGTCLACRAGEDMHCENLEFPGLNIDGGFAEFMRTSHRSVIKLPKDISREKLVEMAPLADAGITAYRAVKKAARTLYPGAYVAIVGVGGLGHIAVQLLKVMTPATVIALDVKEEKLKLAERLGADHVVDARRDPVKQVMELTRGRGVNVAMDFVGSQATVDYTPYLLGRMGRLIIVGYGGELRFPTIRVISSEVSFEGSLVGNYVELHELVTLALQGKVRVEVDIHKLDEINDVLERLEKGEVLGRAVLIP
Experiment: NADH formation, initial rate
Type: biochemical
Settings: 70 μM NAD+, 25 °C

| SMILES | NADH formation, initial rate (aqueous, 50 mM potassium phosphate pH 7.4, 150 mM KCl, 1.2 μM enzyme, substrate activation) | NADH formation, initial rate (CTAB/2-pentanol/isooctane reversed micelles, W0 16.7, 2-pentanol as co-substrate) |
| --- | --- | --- |
| CCCC(C)O (centres unmarked) [2-pentanol] | substrate activation was also observed when using 2-pentanol as a substrate in water |  |
| NC(=O)c1ccc[n+]([C@@H]2O[C@H](COP(=O)(O)OP(=O)(O)OC[C@H]3O[C@@H](n4cnc5c(N)ncnc54)[C@H](O)[C@@H]3O)[C@@H](O)[C@H]2O)c1 [NAD^+] |  | A. pernix ADH showed NAD^+ reduction activity in a CTAB/2-pentanol/isooctane reversed micellar system |
